Tests used:
[1] = Solubility of hafnium and zirconium tetrabromides in acetic acid-water mixtures in presence of trimellitic acid
Procedure: Solubility of hafnium compounds, i.e., hafnium bromide, was determined in acetic acid-water mixtures in the presence of trimellitic acid and pyromellitic acid. Hafnium tetrabromide, 0.0012M, was heated in a 20% water-acetic acid solution to reflux. Trimellitic acid (0.71M) was added.

[2] = Metal remaining soluble in filtrate (pyromellitic acid) after durene oxidation

[Br][Hf]([Br])([Br])[Br] [Hafnium tetrabromide]
Appearance of solution after adding trimellitic acid ([1]; 0.0012M tetrabromide in 20% water-acetic acid at reflux, trimellitic acid 0.71M added): remained clear | % Soluble ([1]; Metal + trimellitic acid in 20% H2O-HOAc at 25° C., solution cooled and solids filtered off, molar basis): 36% | % Soluble ([1]; Metal + trimellitic acid in 20% H2O-HOAc at 100° C.): 100% | metal remained soluble ([2]; Example V: durene oxidation reactor effluent cooled to room temperature and filtered): 36% | % Soluble ([2]; Metal in filtrate after durene oxidation): 32%

From patent US5112992A, “Production of polycarboxylic acids with hafnium-activated cobalt catalyst” (Amoco Corporation, priority 1991, dated 1992)
